Converted amounts (≈) assume the structure as drawn. Where a SMILES comes first, the peptide text is derived from it. [ ]: non-standard residue; d: D form. The star is where a group is joined. Azidoacetyl = [N-]=[N+]=NCC(=O)*; Leu(ol) = CC(C)C[C@H](N)CO; Octanoyl = CCCCCCCC(=O)*; nOct = not defined here; Aib = CC(C)(N)C(=O)O
How the values were obtained:
[1] = system: Xanthomonas campestris pv. campestris; experiment: MIC and MBC determinations against Xcc; type: cell-based; design: key to Bacteriostatic (MIC) / bactericidal (MBC) activity at 0.5 µM / Bacteriostatic (MIC) / bactericidal (MBC) activity at 1 µM / Bacteriostatic (MIC) / bactericidal (MBC) activity at 3 µM / Bacteriostatic (MIC) / bactericidal (MBC) activity at 2 µM: Dashes (-) indicate the absence of bacteriostatic or bactericidal activity; Minimal Inhibitory Concentration (MIC); Minimal Bactericidal Concentration (MBC); MIC and MBC: Minimal Inhibitory Concentration (MIC) and Minimal Bactericidal Concentration (MBC); details: for MIC: lowest concentration that completely inhibited visible growth, 72 h, tested 3, 2, 1 and 0.5 µM; for Bacteriostatic (MIC) / bactericidal (MBC) activity at 0.5 µM: peptide 0.5 µM; for Bacteriostatic (MIC) / bactericidal (MBC) activity at 0.5 µM / Bacteriostatic (MIC) / bactericidal (MBC) activity at 1 µM / Bacteriostatic (MIC) / bactericidal (MBC) activity at 2 µM / Bacteriostatic (MIC) / bactericidal (MBC) activity at 3 µM: 72 h growth inhibition, then plating on LBA 24 h; for Bacteriostatic (MIC) / bactericidal (MBC) activity at 1 µM: peptide 1 µM; for Bacteriostatic (MIC) / bactericidal (MBC) activity at 2 µM: peptide 2 µM; for Bacteriostatic (MIC) / bactericidal (MBC) activity at 3 µM: peptide 3 µM
Description: Peptaibols were tested at decreasing concentrations (3, 2, 1 and 0.5 µM). Minimal Bactericidal Concentration (MBC) was determined at the end of the incubation period (72 h) by plating, onto LBA plates, 5 µL samples that were collected from each well with no visible growth.

[2] = system: Xanthomonas campestris pv. campestris strain RC1; experiment: Growth inhibition assay against Xcc (OD600); details: LB, 27 °C, 72 h, OD 600 nm, three replicates, two independent experiments

Row | Molecule | MIC [1] | Bacteriostatic (MIC) / bactericidal (MBC) activity at 0.5 µM [1] | Bacteriostatic (MIC) / bactericidal (MBC) activity at 1 µM [1] | Bacteriostatic (MIC) / bactericidal (MBC) activity at 2 µM [1] | Bacteriostatic (MIC) / bactericidal (MBC) activity at 3 µM [1] | Inhibition of Xcc growth in vitro ([2]; peptide 15 µM) | Inhibition of Xcc growth in vitro ([2]; peptide 3 µM)
1 | nOct-Aib-Gly-Leu-Aib-Lys-Gly-Leu-Aib-Gly-Ile-Lol [Peptide 3] | neither bacteriostatic nor bactericidal activity | - | - | - | - | inactive | 
2 | CCCCCCCC(=O)NC(C)(C)C(=O)N[C@@H](CCCCN)C(=O)N[C@@H](CC(C)C)C(=O)NC(C)(C)C(=O)N[C@@H](CCCCN)C(=O)N[C@@H](CCCCN)C(=O)N[C@@H](CC(C)C)C(=O)NC(C)(C)C(=O)N[C@@H](CCCCN)C(=O)N[C@H](C(=O)N[C@@H](CC(C)C)C(=O)NC(C)(C)C(=O)N[C@@H](CCCCN)C(=O)N[C@@H](CC(C)C)C(=O)NC(C)(C)C(=O)N[C@@H](CCCCN)C(=O)N[C@@H](CCCCN)C(=O)N[C@@H](CC(C)C)C(=O)NC(C)(C)C(=O)N[C@@H](CCCCN)C(=O)N[C@H](C(=O)N[C@H](CO)CC(C)C)[C@@H](C)CC)[C@@H](C)CC [Peptide 10] (Octanoyl-[Aib]KL[Aib]KKL[Aib]KIL[Aib]KL[Aib]KKL[Aib]KI[Leu(ol)]) | 2 µM (≈ 5.14 µg/mL) | - | - |  |  |  | complete inhibition
3 | nOct-Aib-Lys-Leu-Aib-Gly-Gly-Leu-Aib-Gly-Ile-Leu-NH2 [Peptide 2r] |  |  |  |  |  | complete inhibition | 
4 | CCCCCCCC(=O)NC(C)(C)C(=O)N[C@@H](CCCCN)C(=O)N[C@@H](CCCCN)C(=O)N[C@@H](CC(C)C)C(=O)NC(C)(C)C(=O)NCC(=O)N[C@H](C(=O)N[C@H](CO)CC(C)C)[C@@H](C)CC [Peptide 4c] (Octanoyl-[Aib]KKL[Aib]GI[Leu(ol)]) | 3 µM (≈ 2.86 µg/mL) | - | - | - | MIC | completely inhibited | confirmed the Xcc growth inhibition detected at 15 µM
5 | nOct-Aib-Gly-Leu-Aib-Gly-Gly-Leu-Api-Gly-Ile-Lol [Peptide 8] |  |  |  |  |  |  | did not reduce
6 | nOct-Toac-Gly-Leu-Aib-Gly-Gly-Leu-Aib-Arg-Ile-Lol [Peptide 11] |  |  |  |  |  |  | did not reduce
7 | CCCCCCCC(=O)NC(C)(C)C(=O)N[C@@H](CCCCN)C(=O)N[C@@H](CC(C)C)C(=O)NC(C)(C)C(=O)NCC(=O)NCC(=O)N[C@@H](CC(C)C)C(=O)NC(C)(C)C(=O)NCC(=O)N[C@H](C(=O)N[C@H](CO)CC(C)C)[C@@H](C)CC [Peptide 2] (Octanoyl-[Aib]KL[Aib]GGL[Aib]GI[Leu(ol)]) | 3 µM (≈ 3.41 µg/mL) | - | - | - | MIC | completely inhibit | complete inhibition
8 | CCCCCCCC(=O)NC(C)(C)C(=O)N[C@@H](CCCCN)C(=O)N[C@@H](CC(C)C)C(=O)NC(C)(C)C(=O)N[C@@H](CCCCN)C(=O)NCC(=O)N[C@@H](CC(C)C)C(=O)NC(C)(C)C(=O)N[C@@H](CCCCN)C(=O)N[C@H](C(=O)N[C@@H](CC(C)C)C(N)=O)[C@@H](C)CC [Peptide 5r] (Octanoyl-[Aib]KL[Aib]KGL[Aib]KIL-NH2) | 2 µM (≈ 2.59 µg/mL) | - | - |  |  | complete inhibition | confirmed the Xcc growth inhibition detected at 15 µM
9 | nOct-Aib-Gly-Leu-Aib-Lys-Lys-Leu-Leu-NH2 (nOct-[Aib]GL[Aib]KKLL-NH2; reading uncertain) [Peptide 4c1] |  |  |  |  |  | weakly effective | 
10 | nOct-Aib-Gly-Leu-Aib-Lys-Lys-Leu-Aib-Gly-Ile-Lol [Peptide 4] |  |  |  |  |  |  | did not reduce
11 | nOct-Aib-Gly-Leu-Aib-Gly-Gly-Leu-Aib-Gly-Ile-Lol [Trichogin GA IV, trichogin GA IV] |  |  |  |  |  | inactive | 
12 | CCCCCCCC(=O)NC(C)(C)C(=O)N[C@@H](CCCCN)C(=O)N[C@@H](CC(C)C)C(=O)NC(C)(C)C(=O)N[C@@H](CCCCN)C(=O)N[C@@H](CCCCN)C(=O)N[C@@H](CC(C)C)C(=O)NC(C)(C)C(=O)NCC(=O)N[C@H](C(=O)N[C@@H](CC(C)C)C(N)=O)[C@@H](C)CC [Peptide 24r] (Octanoyl-[Aib]KL[Aib]KKL[Aib]GIL-NH2) | 1 µM (≈ 1.29 µg/mL) | - | MIC |  |  | complete inhibition | confirmed the Xcc growth inhibition detected at 15 µM
13 | nOct-Aib-Lys-Lys-Leu-Aib-Gly-Ile-Leu-NH2 [Peptide 4c2] |  |  |  |  |  | no inhibitory effect | 
14 | nOct-Aib-Gly-Leu-Aib-Lys-Aib-Leu-Aib-Gly-Ile-Leu-NH2 [Peptide 6r] |  |  |  |  |  | weakly effective | 
15 | nOct-Aib-Lys-Leu-Aib-Gly-Lys-Leu-Aib-Gly-Ile-Lol [Peptide 7] |  |  |  |  |  | completely inhibit | partial growth inhibition effect
16 | CC[C@H](C)[C@H](NC(=O)[C@H](CCCCN)NC(=O)C(C)(C)NC(=O)[C@H](CC(C)C)NC(=O)[C@H](CCCCN)NC(=O)[C@H](CCCCN)NC(=O)C(C)(C)NC(=O)[C@H](CC(C)C)NC(=O)[C@H](CCCCN)NC(=O)C(C)(C)NC(=O)CN=[N+]=[N-])C(=O)N[C@H](CO)CC(C)C [Peptide 9] (Azidoacetyl-[Aib]KL[Aib]KKL[Aib]KI[Leu(ol)]) | 1 µM (≈ 1.31 µg/mL) | - | MIC |  |  |  | complete inhibition
17 | nOct-Aib-Gly-Leu-Aib-Gly-Lys-Leu-Aib-Gly-Ile-Leu-NH2 [Peptide 22r] |  |  |  |  |  | complete inhibition | 
18 | CCCCCCCC(=O)NC(C)(C)C(=O)N[C@@H](CCCCN)C(=O)N[C@@H](CC(C)C)C(=O)NC(C)(C)C(=O)N[C@@H](CCCCN)C(=O)N[C@@H](CCCCN)C(=O)N[C@@H](CC(C)C)C(=O)NC(C)(C)C(=O)NCC(=O)N[C@H](C(=O)N[C@H](CO)CC(C)C)[C@@H](C)CC [Peptide 24] (Octanoyl-[Aib]KL[Aib]KKL[Aib]GI[Leu(ol)]) | 1 µM (≈ 1.28 µg/mL) | - | MIC |  |  |  | complete inhibition
19 | nOct-Aib-Lys-Leu-Aib-Lys-Gly-Leu-Aib-Gly-Ile-Lol [Peptide 1] |  |  |  |  |  | completely inhibit | complete inhibition
20 | nOct-Aib-Gly-Leu-Aib-Gly-Gly-Leu-Api-Ile-Lol [Peptide 8ApiC] |  |  |  |  |  |  | did not reduce
21 | nOct-Aib-Gly-Leu-Aib-Gly-Gly-Leu-Aib-Lys-Ile-Lol [Peptide 25] |  |  |  |  |  |  | did not reduce
22 | nOct-Aib-Lys-Leu-Aib-Lys-Gly-Leu-Aib-Lys-Ile-Lol [Peptide 5] |  |  |  |  |  |  | did not reduce
23 | CCCCCCCC(=O)NC(C)(C)C(=O)N[C@@H](CCCCN)C(=O)N[C@@H](CC(C)C)C(=O)NC(C)(C)C(=O)N[C@@H](CCCCN)C(=O)N[C@@H](CCCCN)C(=O)N[C@@H](CC(C)C)C(=O)NC(C)(C)C(=O)N[C@@H](CCCCN)C(=O)N[C@H](C(=O)N[C@H](CO)CC(C)C)[C@@H](C)CC [Peptide 23] (Octanoyl-[Aib]KL[Aib]KKL[Aib]KI[Leu(ol)]) | 1 µM (≈ 1.35 µg/mL) | - |  |  |  |  | complete inhibition
24 | CCCCCCCC(=O)NC(C)(C)C(=O)NCC(=O)N[C@@H](CC(C)C)C(=O)NC(C)(C)C(=O)NCC(=O)N[C@@H](CCCCN)C(=O)N[C@@H](CC(C)C)C(=O)NC(C)(C)C(=O)NCC(=O)N[C@H](C(=O)N[C@H](CO)CC(C)C)[C@@H](C)CC [Peptide 22] | 2 µM (≈ 2.28 µg/mL) | - | - |  | - |  | complete inhibition

From paper PMC9967956, “Efficacy of Trichoderma longibrachiatum Trichogin GA IV Peptaibol analogs against the Black Rot Pathogen Xanthomonas campestris pv. campestris and other Phytopathogenic Bacteria” (Microorganisms, 2023)
